Results published in ChEMBL document CHEMBL1201862, “PubChem BioAssay data set” (2004).
Active and inactive are the calls of the source.

Tests used:
SN12K1 = assay: cells; format: functional; details: Homo sapiens
P388/ADR = assay: cells; format: functional; details: Mus musculus
P388 = assay: cells; format: functional; details: Mus musculus
[1] = target: T1, Microphthalmia-associated transcription factor (Homo sapiens, UniProt O75030); assay: reducers of TRPM1 reporter luminescence, concentration series – cell-based, SK-MEL-5, cherry-picked, set 3, MITF inhibitor project, dose response (AID 493073); format: functional;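 further: SK-MEL-5 melanoma cells with luciferase driven by the MITF target TRPM1 promoter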
T1 sequence (O75030 whole entry): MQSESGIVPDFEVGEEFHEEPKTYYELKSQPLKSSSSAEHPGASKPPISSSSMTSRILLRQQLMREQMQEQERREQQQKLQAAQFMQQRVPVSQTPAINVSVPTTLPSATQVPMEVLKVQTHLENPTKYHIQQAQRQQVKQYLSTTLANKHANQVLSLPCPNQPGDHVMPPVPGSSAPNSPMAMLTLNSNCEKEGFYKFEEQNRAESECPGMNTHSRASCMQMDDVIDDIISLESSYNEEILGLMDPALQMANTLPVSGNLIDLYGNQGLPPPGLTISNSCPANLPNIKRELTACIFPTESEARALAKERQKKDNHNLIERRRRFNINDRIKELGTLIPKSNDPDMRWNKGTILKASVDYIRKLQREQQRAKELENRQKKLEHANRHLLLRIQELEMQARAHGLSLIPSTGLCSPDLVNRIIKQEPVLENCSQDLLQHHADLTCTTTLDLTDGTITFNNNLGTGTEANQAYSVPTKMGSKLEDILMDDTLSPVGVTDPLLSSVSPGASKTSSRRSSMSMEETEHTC

[2] = blockers of HIV-1 envelope-mediated cell-cell fusion – cherry-pick, dose response (AID 652057); format: functional, cell-based
[3] = HIV-1 AD8 envelope cell-cell fusion blockers – cherry-pick, dose response (AID 652062); format: functional, cell-based;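 further: luciferase signal from cell-cell fusion driven by HIV-1 clade B AD8 Env; potency is for inhibitors of fusion seen as a drop in luminescence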
[4] = target: T2, Carboxy-terminal domain RNA polymerase II polypeptide A small phosphatase 1 (Homo sapiens, UniProt Q9GZU7); assay: CTDSP1 inhibitors, concentration-response, biochemical, absorbance readout, ultra-high-throughput screen actives (AID 540297); format: functional
T2 sequence (Q9GZU7 whole entry): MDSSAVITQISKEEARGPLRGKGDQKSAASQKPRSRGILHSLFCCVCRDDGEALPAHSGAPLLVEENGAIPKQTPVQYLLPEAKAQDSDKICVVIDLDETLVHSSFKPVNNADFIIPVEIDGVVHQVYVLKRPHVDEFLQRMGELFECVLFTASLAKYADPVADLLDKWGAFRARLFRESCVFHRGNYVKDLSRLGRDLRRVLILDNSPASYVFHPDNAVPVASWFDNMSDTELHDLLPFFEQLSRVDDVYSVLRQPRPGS

[5] = Luminescence Cell-Based Dose Retest to Confirm Inhibitors of Cancer Stem Cells. [Related pubchem assays (depositor defined):AID2717, AID2721]; format: functional; details: Homo sapiens
[6] = target: T3, Ubiquitin-conjugating enzyme E2 N (Homo sapiens, UniProt P61088); format: functional;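 further: Dose-response confirmation in a TR-FRET assay detecting UBC13-driven polyubiquitin chain formation, inhibition measured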
T3 sequence (P61088 whole entry): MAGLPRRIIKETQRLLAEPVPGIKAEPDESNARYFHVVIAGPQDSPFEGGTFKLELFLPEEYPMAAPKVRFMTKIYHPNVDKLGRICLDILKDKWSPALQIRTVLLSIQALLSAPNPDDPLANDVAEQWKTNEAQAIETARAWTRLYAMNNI

[7] = Trypanosoma cruzi growth suppression in host cells – NIH3T3 host cells, beta-gal luminescence, confirmation (AID 2044); format: functional, cell-based;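 further: intracellular parasites grown in NIH/3T3 mouse fibroblasts as host cells; luminescent beta-galactosidase reporter signal from transgenic T. cruzi replicating inside host cells; inhibitors lower the luminescence signal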
[8] = NIH3T3 cell viability loss – ATP luminescence, mouse fibroblasts, counter-screen, dose response (AID 2010); format: functional, cell-based;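 further: cells exposed to compound for about 90 hours before reading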
[9] = microbe, parasite or virus in culture; format: functional; details: Mycobacterium tuberculosis
[10] = target: Voltage-dependent T-type calcium channel subunit alpha-1H (Homo sapiens, UniProt O95180); format: functional;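 further: channel activity triggered by adding a high calcium stimulation buffer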
Voltage-dependent T-type calcium channel subunit alpha-1H, sequence (O95180 whole entry): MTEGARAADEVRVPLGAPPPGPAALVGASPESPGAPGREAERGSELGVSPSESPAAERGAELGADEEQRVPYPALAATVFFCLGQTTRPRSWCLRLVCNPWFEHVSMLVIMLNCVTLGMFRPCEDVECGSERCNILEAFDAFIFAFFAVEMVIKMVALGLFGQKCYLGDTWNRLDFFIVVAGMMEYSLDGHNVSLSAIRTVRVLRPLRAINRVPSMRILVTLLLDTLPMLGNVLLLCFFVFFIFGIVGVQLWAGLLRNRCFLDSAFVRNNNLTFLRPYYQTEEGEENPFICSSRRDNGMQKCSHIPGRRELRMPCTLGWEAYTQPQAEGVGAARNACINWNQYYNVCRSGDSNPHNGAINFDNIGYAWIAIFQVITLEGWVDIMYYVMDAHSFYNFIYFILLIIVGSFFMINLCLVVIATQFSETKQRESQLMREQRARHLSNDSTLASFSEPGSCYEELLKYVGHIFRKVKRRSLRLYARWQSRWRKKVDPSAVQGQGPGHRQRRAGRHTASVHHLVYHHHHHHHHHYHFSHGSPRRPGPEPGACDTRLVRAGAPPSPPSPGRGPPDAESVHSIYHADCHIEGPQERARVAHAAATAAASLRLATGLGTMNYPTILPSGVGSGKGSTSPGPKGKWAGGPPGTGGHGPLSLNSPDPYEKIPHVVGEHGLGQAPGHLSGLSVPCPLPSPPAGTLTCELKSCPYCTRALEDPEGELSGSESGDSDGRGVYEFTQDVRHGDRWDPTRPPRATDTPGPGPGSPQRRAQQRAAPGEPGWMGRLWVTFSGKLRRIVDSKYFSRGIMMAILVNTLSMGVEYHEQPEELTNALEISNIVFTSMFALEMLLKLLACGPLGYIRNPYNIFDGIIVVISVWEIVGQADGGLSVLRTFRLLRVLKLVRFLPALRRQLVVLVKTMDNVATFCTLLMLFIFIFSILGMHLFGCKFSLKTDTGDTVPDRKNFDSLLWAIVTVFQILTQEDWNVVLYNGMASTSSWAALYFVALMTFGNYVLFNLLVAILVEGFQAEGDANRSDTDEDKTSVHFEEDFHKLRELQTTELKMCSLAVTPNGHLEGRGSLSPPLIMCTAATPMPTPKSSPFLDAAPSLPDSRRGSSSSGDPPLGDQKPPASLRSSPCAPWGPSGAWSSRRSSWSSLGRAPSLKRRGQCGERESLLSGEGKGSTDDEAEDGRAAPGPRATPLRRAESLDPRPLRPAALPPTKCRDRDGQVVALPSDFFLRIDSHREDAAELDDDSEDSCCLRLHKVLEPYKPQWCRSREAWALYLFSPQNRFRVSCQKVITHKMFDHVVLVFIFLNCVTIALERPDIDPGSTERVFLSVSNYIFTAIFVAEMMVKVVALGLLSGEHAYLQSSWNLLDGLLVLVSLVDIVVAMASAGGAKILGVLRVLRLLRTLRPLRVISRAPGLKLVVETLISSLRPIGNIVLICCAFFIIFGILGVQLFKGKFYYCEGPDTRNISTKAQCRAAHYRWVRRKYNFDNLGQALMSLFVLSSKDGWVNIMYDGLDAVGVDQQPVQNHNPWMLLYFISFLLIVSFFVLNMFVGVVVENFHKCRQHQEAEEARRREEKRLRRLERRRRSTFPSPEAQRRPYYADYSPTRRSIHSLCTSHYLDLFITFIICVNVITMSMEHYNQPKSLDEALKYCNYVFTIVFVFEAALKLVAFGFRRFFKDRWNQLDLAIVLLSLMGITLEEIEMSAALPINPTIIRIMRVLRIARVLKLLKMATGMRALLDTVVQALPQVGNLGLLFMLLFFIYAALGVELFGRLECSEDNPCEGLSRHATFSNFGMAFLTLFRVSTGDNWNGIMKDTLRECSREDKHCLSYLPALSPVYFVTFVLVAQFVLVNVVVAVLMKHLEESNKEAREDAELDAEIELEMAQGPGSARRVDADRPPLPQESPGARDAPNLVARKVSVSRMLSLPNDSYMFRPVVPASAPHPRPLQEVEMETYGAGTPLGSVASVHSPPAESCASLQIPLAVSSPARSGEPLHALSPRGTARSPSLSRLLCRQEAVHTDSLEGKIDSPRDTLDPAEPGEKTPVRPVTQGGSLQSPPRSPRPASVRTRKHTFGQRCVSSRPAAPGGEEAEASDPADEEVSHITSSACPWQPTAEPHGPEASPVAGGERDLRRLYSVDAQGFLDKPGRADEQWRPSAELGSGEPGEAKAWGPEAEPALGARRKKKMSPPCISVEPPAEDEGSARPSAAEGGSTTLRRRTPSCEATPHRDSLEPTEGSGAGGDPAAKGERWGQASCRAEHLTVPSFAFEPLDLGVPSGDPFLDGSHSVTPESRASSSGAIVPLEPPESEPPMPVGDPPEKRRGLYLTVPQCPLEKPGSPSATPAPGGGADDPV

[11] = viability of HCT116 lacking mutant beta-catenin – cell-based, human colon tumor, dose response (AID 1045); format: functional;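 further: HCT116 colon tumor cells with beta catenin knocked out; cells exposed to compound for 60 hours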
[12] = viability of PTEN-deleted HCT116 cells – cell-based, HCT116 PTEN knockout, dose response (AID 1047); format: functional;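 further: HCT116 colon tumor cells with PTEN knocked out; cells exposed to compound for 60 hours before readout; potency for loss of cell viability measured by luminescence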
[13] = P. falciparum Dd2 growth inhibitors, dose response, SYBR Green, cherry-picked samples (AID 1159567); format: functional, cell-based
[14] = toxicity to human hepatoma HepG2 cells – cell-based, cherry-picked samples, cytotoxicity control, dose response (AID 1159577); format: functional
[15] = target: T4, Calpain-2 catalytic subunit (Sus scrofa, UniProt P43367); assay: m-calpain protease blockers, concentration series – biochemical, fluorogenic peptide substrate, dose response (AID 1420); format: functional
T4 sequence (P43367 whole entry): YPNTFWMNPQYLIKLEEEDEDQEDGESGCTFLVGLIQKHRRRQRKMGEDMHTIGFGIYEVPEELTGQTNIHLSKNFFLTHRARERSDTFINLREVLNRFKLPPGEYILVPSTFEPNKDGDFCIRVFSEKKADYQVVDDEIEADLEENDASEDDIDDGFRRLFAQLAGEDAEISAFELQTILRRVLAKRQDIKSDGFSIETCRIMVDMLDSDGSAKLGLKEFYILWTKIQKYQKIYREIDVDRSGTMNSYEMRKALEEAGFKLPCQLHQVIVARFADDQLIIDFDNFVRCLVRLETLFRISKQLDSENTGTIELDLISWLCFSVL

H9c2 = assay: cells; format: functional, cell-based; details: Rattus norvegicus, H9c2, Myocardium;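 further: confirmatory concentration-response retest of ultra-high-throughput screening hits for modulation of myocardial damage; cell death induced by hydrogen peroxide oxidative stress; compound pretreatment for 60 min then peroxide exposure for 2 h; potency is for protecting the cells against peroxide damage rather than for killing them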
Paired box protein Pax-8 = Paired box protein Pax-8 (Homo sapiens, UniProt Q06710); assay: PAX8 transcriptional activity inhibition in RMG-I – RMG-I cells, luciferase, cherry-pick, dose response (AID 687027); format: functional, cell-based;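 further: luciferase reporter driven by Pax8 target thyroperoxidase promoter measured by SteadyGlo luminescence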
Paired box protein Pax-8, sequence (Q06710 whole entry): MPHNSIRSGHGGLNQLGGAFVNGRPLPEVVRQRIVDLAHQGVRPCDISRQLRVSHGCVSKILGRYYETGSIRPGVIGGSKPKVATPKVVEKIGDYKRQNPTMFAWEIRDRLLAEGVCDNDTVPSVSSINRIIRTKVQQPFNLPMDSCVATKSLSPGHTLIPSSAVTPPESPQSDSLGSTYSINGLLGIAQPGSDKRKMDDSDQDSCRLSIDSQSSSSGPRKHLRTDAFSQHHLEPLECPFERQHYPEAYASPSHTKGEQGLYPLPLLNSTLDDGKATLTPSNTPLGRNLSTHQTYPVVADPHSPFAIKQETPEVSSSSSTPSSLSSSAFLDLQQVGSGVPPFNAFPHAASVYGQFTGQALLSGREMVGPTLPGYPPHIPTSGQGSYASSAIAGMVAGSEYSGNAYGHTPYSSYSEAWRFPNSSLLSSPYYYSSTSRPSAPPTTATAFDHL

O=P1(N(CCCl)CCCl)NCCCO1 (stereo unspecified) [CYCLOPHOSPHAMIDE ANHYDROUS]
GI50 (SN12K1): > 245 µM (inactive)
GI50 (P388/ADR): 196 µM (inactive)
GI50 (P388): 229 µM (inactive)

COc1ccc(C)cc1Nc1nc(N)c2cc(OC)c(OC)cc2n1
AC50 [1]: 14.2 µM (active)

Cc1ccc(S(=O)(=O)N(C)C[C@@H]2Oc3ccc(NC(=O)Cc4cn(C)c5ccccc45)cc3CC(=O)N([C@H](C)CO)C[C@@H]2C)cc1
AC50 [2]: 1.09 µM (active)
AC50 [3]: 14.5 µM (active)

C[C@H](CO)N1C[C@H](C)[C@H](CN(C)S(=O)(=O)c2cccs2)Oc2ccc(NC(=O)Cc3ccccc3)cc2CC1=O
AC50 [2]: < 0.26 µM (active)
AC50 [3]: < 0.26 µM (active)

O=C(NCc1ccco1)c1ccc2c(=O)n(Cc3ccco3)c(SCC(=O)N3CCCC3)nc2c1
IC50 [4]: 6.12 µM (active)

O=c1c2cc(NC(=S)NCCCN3CCC(Cc4ccccc4)CC3)ccc2nc2n1CCCCC2
AC50 [5]: 9.58 µM (active)
IC50 [6]: > 20 µM (inactive)
EC50 [7]: 2.09 µM (active)
EC50 [8]: > 60 µM (not active)

COc1ccc(N2CCN(Cc3cc4c(cc3O)CCC4)CC2)cc1
CC50 [9]: > 40 µM (active)

COc1ccccc1N1CCN(C(=O)C(Sc2ccccc2)c2ccccc2)CC1 (stereo unspecified)
EC50 [10]: 4.93 µM (active)

C/C(=N\NC(=O)CC(C)C)c1c(C(F)(F)F)nn(-c2nc3ccccc3s2)c1O
CC50 [9]: 37.4 µM (active)

CCOC(=O)c1c[nH]c2cc3c(cc2c1=O)CCS3(=O)=O.CCOC(=O)c1c[nH]c2ccc3c(c2c1=O)S(=O)(=O)CC3
GI50 (SN12K1): > 100 µM (inactive)
GI50 (P388/ADR): > 100 µM (inactive)
GI50 (P388): > 100 µM (inactive)

O=C(/C=C/c1ccc(Br)cc1)c1ccco1
EC50 [11]: 10.9 µM (active)
EC50 [12]: 11.5 µM (active)

O=C1NC(=O)C(CCO)(c2ccccc2)C(=O)N1
GI50 (SN12K1): > 100 µM (inactive)
GI50 (P388): > 100 µM (inactive)

CN(C)C(=O)c1cccc(-c2cccc(-c3nc(C(=O)NCc4ccccc4)cc4c3[C@@H](CCO)N([S@+]([O-])C(C)(C)C)C4)c2)c1
AC50 [13]: 1.17 µM (active)
AC50 [14]: 17.5 µM (active)

O=C(O)c1ccc(Nc2c3ccccc3nc3ccccc23)cc1
GI50 (SN12K1): 60.5 µM (inactive)
GI50 (P388/ADR): 22.4 µM (inactive)
GI50 (P388): 3.92 µM (inactive)

Cn1c(N)c(C(=O)COC(=O)CCCc2nc3ccccc3s2)c(=O)n(C)c1=O
IC50 [15]: > 50 µM (not active)

Cc1cc(NS(=O)(=O)c2ccc(NC(=S)NC(=O)c3ccc(C(C)(C)C)cc3)cc2)no1
IC50 [15]: 26.1 µM (not active)

COc1ccc(Br)cc1/C=C(\C(=O)O)c1ccc(S(=O)(=O)N2CCCC2)s1
IC50 [4]: 8.63 µM (active)

COC(=O)c1[nH]c2cc(OC)ccc2c1NC(=O)CN1CCN(c2cccc(C)c2)C(C)C1 (stereo unspecified)
CC50 [9]: 30.6 µM (active)

CCN(CC)S(=O)(=O)c1ccc(Nc2nc3ccccc3n3nnnc23)cc1
IC50 (H9c2): > 79 µM (inactive)
EC50 [11]: 35.3 µM (active)
EC50 [12]: 22.1 µM (active)

CN1CCN(Cc2nc3ccccc3c(=O)n2Cc2nc(-c3ccc4ccccc4c3)cs2)CC1
AC50 [5]: 4.28 µM (active)
CC50 [9]: 6.44 µM (active)
EC50 [11]: 4.02 µM (active)
EC50 [12]: 4.11 µM (active)

Cc1ccc(-c2cc(C(F)F)n3ncc(C(=O)Nc4c(C)nn(Cc5ccccc5Cl)c4C)c3n2)cc1
EC50 [11]: 8.23 µM (active)
EC50 [12]: 8.84 µM (active)

COC1C(O)C(n2ncc3c(SC)nc(SC)nc32)OC1C(O)CO (stereo unspecified)
GI50 (SN12K1): > 37.2 µM (inactive)
GI50 (P388/ADR): > 100 µM (inactive)
GI50 (P388): 98.2 µM (inactive)

CCc1ccc(-c2nc(CN3CCC(C(=O)N4CCN(c5ccccn5)CC4)CC3)c(C)o2)cc1
EC50 [11]: 7.28 µM (active)
EC50 [12]: 7.51 µM (active)

Nc1c(C(=O)C2CC2)sc2nc(-c3ccccc3)cc(C(F)(F)F)c12
EC50 [10]: 2.51 µM (active)

Cc1ccc(-c2csc(NC(=O)c3cccc(N4C(=O)CCC4=O)c3)n2)o1
EC50 [10]: 3.78 µM (active)

COc1ccc(-c2nnc(SCC(=O)Nc3cc(F)ccc3C)o2)cc1
IC50 [6]: > 20 µM (inactive)

O=C(CCC(=O)N1CCN(S(=O)(=O)c2ccc(Cl)cc2)CC1)Nc1cccc(Br)c1
IC50 [15]: 24.9 µM (not active)

CCOc1ccc(C2CC(c3cccc(OC)c3OC)n3nnnc3N2)cc1Cl (stereo unspecified)
EC50 [10]: 2.66 µM (active)

CC(C)COP(=O)(OCC(C)C)C(Nc1ccccc1)c1ccc2c(c1)OCO2 (stereo unspecified)
IC50 (H9c2): > 79 µM (inactive)
IC50 [15]: 11.4 µM (not active)

COC(=O)[C@]12CCCCC=C1N(Cc1cccc3ccccc13)C(=O)[C@H](CC(=O)N1CCN(C(=O)c3ccco3)CC1)C2
AC50 (Paired box protein Pax-8): 1.59 µM (active)

CC(=O)C(C[N+]1(C)CCCCC1)=NO
IC50 [4]: 3.4 µM (active)

CCC(=O)N1c2ccc(C)cc2C2=NN=C(S)NC21O (stereo unspecified)
IC50 [6]: > 20 µM (inactive)

Cc1ccc(C(NC(=O)N2CCOCC2)=C(Cl)Cl)cc1F
EC50 [11]: 4.71 µM (active)
EC50 [12]: 6.69 µM (active)

C[C@H](CO)N1C[C@H](C)[C@H](CN(C)C(=O)[C@H](C)c2ccccc2)OCc2ccccc2-c2c(n(C)c3ccccc23)C1=O
AC50 [13]: 4.15 µM (active)
AC50 [14]: 34.4 µM (active)

c1ccc2c(c1)NCc1cc3ccccc3nc1O2
GI50 (SN12K1): > 100 µM (inactive)
GI50 (P388/ADR): 74.1 µM (inactive)
GI50 (P388): > 100 µM (inactive)

Cc1ccc(CCNC(=O)c2ccc3nc4ccccc4c(=O)n3c2)cc1
IC50 [4]: 14.2 µM (active)

Cc1ccccc1S(=O)(=O)N1CC(=O)N2[C@H](C1)[C@@H](c1ccc(C#Cc3ccccc3)cc1)[C@@H]2CO
AC50 [13]: 3.52 µM (active)
AC50 [14]: 15.8 µM (active)

Cc1ccc(C#CS(=O)(=O)C(F)(F)F)cc1
GI50 (SN12K1): > 100 µM (inactive)
GI50 (P388/ADR): > 100 µM (inactive)
GI50 (P388): 90.6 µM (inactive)

CCOc1ccc(-c2n[nH]cc2Oc2cccc(OC)c2)c(O)c1
IC50 [6]: > 20 µM (inactive)

O=C(CSc1nc(N2CCCCC2)nc(N2CCCCC2)n1)N1CCN(c2ccccc2)CC1
EC50 [10]: 5.36 µM (active)
